Laboratory results published in patent US11401255B2, “Small molecule activators of Parkin enzyme function” (Mayo Foundation for Medical Education and Research, priority 2016, dated 2022).
pEC50: −log10 of the molar value. Where a name gives a salt, the structure may show the parent alone. Read-outs that look alike come from different tables or passages of the source.

What was measured:
Parkin = Parkin (Homo sapiens (Human), UniProt O60260); assay: Primary HCI assay of EGFP-Parkin translocation to mitochondria; type: cell-based; details: primary assay screen, Parkin translocation to mitochondria
Procedure: GFP-Parkin is localized throughout the cell in unstressed cells but translocates to mitochondria when the mitochondrial membrane potential is compromised and Parkin is activated. After automated image acquisition of fixed cells, regions of interest of each cell were defined with the analysis software. […] To quantify the relocalization of GFP-Parkin to mitochondria, the ratio of the GFP intensity in the cytoplasm and the nucleus was calculated. Under non-stressed condition, this ratio is about 1. FIG. 1B is a bar graph showing the results of the assay with a Z factor (Z′) of 0.5-0.8, which indicates its robustness and usefulness as a screening assay. Validation of the assay has been performed by using PINK1 siRNA.
FIGS. 2A-2C show a primary HCI assay with CCCP titration. FIG. 2A is a graphic description of the primary HCI assay of EGFP-Parkin translocation. HeLa cells stably expressing GFP-Parkin were seeded with 1350 cells per well in 384-well plates (25 μL per well). Cells were allowed to attach overnight before drug was added 2× concentrated in a volume of 25 μL in triplicates. After 2 h, 50 μL of a 2× low-dose CCCP (yielding a final concentration of 3.5 μM CCCP) was added to all wells that contained test compounds and for the negative control. For positive control wells, CCCP was added in a final concentration of 10 μM. After 2 h incubation with CCCP, cells were fixed and labeled with Hoechst for at least 1 h before cells were imaged. […] Values were being normalized to negative and positive control values and plotted as % activity. Z′ was calculated for quality control. Positive controls were indicated in green, negative control wells in red. Drugs that lead to more than 50% activity are considered positive (blue).
Functional testing of compounds was performed using an established primary HCI assay for Parkin translocation, which correlates well with enzymatic activation (Fiesel et al., J. Cell Science (2014) 127:3488-3504; Fiesel et al., Human Mutation (2015) 36:774-786). In brief, 1400 HeLa cells stably expressing EGFP-Parkin were seeded into optical 384-well plates (Greiner BioOne) in 25 μL media and allowed to adhere for 40 h. Compounds 1, 2, 3, 4, and 31 were added to the plate as 2× concentrated stocks. Control wells were treated with equal volume of DMSO in media. After 2 h, unless otherwise stated, CCCP was added as 2× concentrated stock with a final assay concentration of 10 μM for PC wells and 3.5 μM for test and NC wells. This low dose of CCCP was experimentally determined by a dose response curve of CCCP to result in no Parkin translocation (FIG. 13). After another 2 h, cells were fixed in 4% paraformaldehyde for 10 min and stained with Hoechst 33342 (1:5000, Invitrogen) before plates were imaged and analyzed.
Image acquisition was performed on a BD Pathway 855 with the Attovision V1.6 software (BD Biosciences). Wells were imaged with a 20× objective using a 2×2 montage with laser autofocus. EGFP exposure time was 0.0175 sec, Hoechst 0.0015 sec. Raw images were not processed and directly analyzed using a build-in ‘RING—2 output’ algorithm. Values were exported and normalized using JMP 11 software and transferred to GraphPad Prism 7 for quality control, graphing and curve fitting for DRCs with a variable slope using four parameters. […] Values were normalized to both PC and NC values from 24 wells each per plate and the Z′ score was calculated. Plates with Z′<0.5 were repeated.

FLAG-Parkin C431S = FLAG-Parkin C431S (Homo sapiens (Human), UniProt O60260, C431S); assay: Ub-charging of FLAG-Parkin C431S (western blot); type: cell-based; details: 1 μM, 2 h before 3.5 μM CCCP (FIG. 21)
Procedure: Another measure of Parkin activation is Ub charging of Parkin. Parkin receives Ub from an E2 enzyme to transfer it to a substrate protein. The Ub is bound by Parkin C431 in an unstable thioester bond. A serine substitution of this amino acid (C431S) leads to a stable oxyester bond. The bound Ub can then be visualized as a band shift in Western blot experiments. HeLa 3×FLAG-Parkin C431S cells were seeded in 12-well plates and allowed to attach overnight. Cells were treated with 5 μM (top panels) or 1 μM (bottom panels) of Compounds 1, 2, 3, 4, and 31 2 h before adding CCCP for another 2 h. 10 μM CCCP was added to positive control (PC) wells whereas all other samples received a low dose concentration of 3.5 μM. Cells were harvested in boiling hot SDS lysis buffer and protein concentration was determined by BCA. Samples were split and left either untreated or were treated with NaOH as indicated. Samples were run on an 8-16% Tris-Glycine gel, blotted onto membranes and probed with antibodies against Flag and pS65-Ub. GAPDH served as a loading control. Band shift indicates Parkin binding to Ubiquitin, which is cleavable with NaOH.
Cells were harvested in RIPA buffer or NP-40 lysis buffer containing protease and phosphatase inhibitors (Complete and PhosStop, Roche Applied Science) with the exception of Parkin Ub charging experiments where preheated (95° C.) SDS lysis buffer (50 mM Tris pH 7.6, 150 mM NaCl, 1% SDS) was used. Concentration of cell lysates was determined with bicinchoninic acid (Pierce Biotechnology). For Parkin Ub charging experiments, aliquots of lysates were treated with […] for 1 h at 37° C. pH was neutralized with equinormal HCl.
Protein was subjected to SDS-PAGE using 4-20% or 8-16% Tris-Glycine gels (Invitrogen) and transferred onto polyvinylidene fluoride (PVDF) (Millipore). Membranes were incubated with primary antibodies overnight at 4° C. followed by HRP-conjugated secondary antibodies (1:10,000; Jackson ImmunoResearch Laboratories). Primary antibodies used: beta III tubulin (rabbit, 1:1000, CST, #5568, CST), FLAG (mouse, 1:250,000, Sigma, F3165), GAPDH (mouse, 1:100,000-500,000, Meridian Life science, H86504M), GST (1:10,000, Sigma, G7781), MFN1 (mouse, 1:5,000, Abcam, ab57602), MFN2 (mouse, 1:5,000, Abcam, ab56889), Parkin (mouse, 1:2,000, Cell Signaling, #4211), pSer65-Ub (rabbit, 1:15,000, in-house (Fiesel et al., EMBO Reports (2015) 16:1114-30; Fiesel et al., (2015) Autophagy 11:2125-2126)), TOM70 (rabbit, 1:5,000, Proteintech, 14528-1-AP), UBE2L3 (rabbit, 1:10,000, ProteinTech, 14415-1-AP), VDAC1 (mouse, 1:5,000, Abcam, ab14734), vinculin (mouse, 1:100,000, Sigma, V9131).
HeLa 3×FLAG-Parkin C431S cells were seeded in 6-well plates and allowed to attach overnight. Cells were treated with […] of compounds 5, 21-28, 32, 33, or 43-46 2 h before adding CCCP for another 2 h. 10 VM CCCP was added to positive control (PC) wells, 3.5 μM CCCP to compound (+) and negative control (NC) wells. […] Cells were harvested in boiling hot SDS lysis buffer and protein concentration was determined by BCA. Samples were split and left either untreated or were treated with NaOH as indicated. Samples were run on an 8-16% Tris-Glycine gel, blotted onto membranes and probed with antibodies against Flag. Vinculin served as a loading control. Band shift indicates Parkin binding to Ubiquitin, which is cleavable with NaOH (FIG. 21).

[1] = Caco-2 A-B permeability assay; type: in vitro ADME; details: human, Caco-2, pH 7.4, A-B
Procedure: (§1) Caco-2 cells were cultivated in 75 cm^2 flasks to 80-90% of confluence according to the ATCC and Millipore recommendations (Millipore protocol note PC1060EN00P) in a humidified atmosphere at 37° C. and 5% CO2. Cells were detached with Trypsin/EDTA solution and re-suspended in the cell culture medium to a final concentration of 2×10^5 cells/mL. 500 μL of the cell suspension was added to each well of an HTS 24-multiwell insert system and 35 mL of prewarmed complete medium was added to the feeder tray. Caco-2 cells were incubated in the multiwell insert system for 10 days before the transport experiments. The medium in the filter plate and feeder tray was changed every other day. After 10 days of cell growth, the integrity of the monolayer was verified by measuring the transepithelial electrical resistance (TEER) for every well using the Millicell-ERS system ohm meter. […] The 24-well insert plate was removed from its feeder plate and placed in a new sterile 24-well transport analysis plate. The medium was aspirated and inserts washed with PBS.
(§2) To determine the rate of drug transport in apical (A) to basolateral (B) direction, 300 μL of the test compound solution in buffer (HBSS, 5.6 mM glucose, 10 mM HEPES, pH=7.4) was added into the filter wells and 1000 μL of the same buffer was added to wells in the transport analysis plate. The plates were incubated for 90 min. at 37° C. with shaking at 50 rpm. 75 μL aliquots were taken from the apical and basolateral compartment for LC-MS/MS analysis. All samples for LC-MS/MS analysis were extracted by acetonitrile (×2 volume) followed by protein sedimentation by centrifuging at 10000 rpm for 10 minutes. Supernatants were analyzed using the HPLC system coupled with a tandem mass spectrometer.
(§3) The apparent permeability (Papp) was calculated for the Caco-2 permeability assay using the following equation: Papp=(VA/((Area)×(Time))×([drug]acc/[drug]initial,d), where: […]

Caco-2 cells = assay: Caco-2 A-B permeability assay; type: in vitro ADME; details: A-B, 90 min, pH=7.4; hydrochloride
Procedure: as §1, §2, §3

CYP 2D6 = CYP 2D6 (Homo sapiens (Human), UniProt P10635); assay: P450-Glo CYP450 inhibition, CYP 2D6
CYP 2D6, sequence (P10635 whole entry): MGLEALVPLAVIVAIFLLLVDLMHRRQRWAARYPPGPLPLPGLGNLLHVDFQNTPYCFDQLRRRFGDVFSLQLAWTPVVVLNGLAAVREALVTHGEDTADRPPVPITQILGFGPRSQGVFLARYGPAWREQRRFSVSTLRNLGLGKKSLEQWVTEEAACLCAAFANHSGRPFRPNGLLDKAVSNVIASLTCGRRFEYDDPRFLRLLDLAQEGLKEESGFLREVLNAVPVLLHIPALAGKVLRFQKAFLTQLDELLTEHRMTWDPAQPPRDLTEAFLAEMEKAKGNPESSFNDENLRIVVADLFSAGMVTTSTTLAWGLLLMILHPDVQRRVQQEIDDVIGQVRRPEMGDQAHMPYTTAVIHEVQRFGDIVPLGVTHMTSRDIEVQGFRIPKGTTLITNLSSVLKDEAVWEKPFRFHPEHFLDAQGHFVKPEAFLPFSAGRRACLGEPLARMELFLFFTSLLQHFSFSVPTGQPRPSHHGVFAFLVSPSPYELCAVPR
Procedure: CYP450 inhibition profiling provides valuable information regarding any possible drug-drug interactions for a test compound.
All experiments were performed using P450-Glo™ Assay Systems (Promega) in accordance with the manufacturer's protocols. The P450-Glo™ Assays provide a luminescent readout-based method for measuring cytochrome P450 activity. A conventional cytochrome P450 reaction was performed by incubating the cytochrome P450 and a luminogenic cytochrome P450 substrate. The substrates in the P450-Glo™ assays are derivatives of beetle luciferin. The derivatives themselves are not substrates for luciferase but are converted by cytochrome P450s to luciferin, which in turn reacts with luciferase to produce light. The amount of light produced was directly proportional to cytochrome P450 activity. All test points were performed in quadruplicates. Control membranes (without CYPs) represented the Negative control (baseline).
The following reference compounds were used to assess CYP inhibition: […]

Row | pEC50 (Parkin) | Ub-charging of FLAG-Parkin C431S (WB) (FLAG-Parkin C431S) | Compound | other results
1 | 7.20 | enhanced Ub-charging | Cc1nc(NC(=O)Cn2cnc3c2CCCC3)ccc1-c1ccccc1 [Compound 5] | –
2 | 7.44 | enhanced Ub-charging | c1ccc(CN2CCCN(c3ncnc4c3CCCCC4)CC2)cc1 [Compound 32] | –
3 | 6.95 | enhanced Ub-charging | c1ccc(CN2CCCN(c3ncnc4c3CCCC4)CC2)cc1 [Compound 33] | –
4 | – | – | CC(C)NCC(O)COc1cccc2ccccc12 (stereo not shown) [Propranolol, propranolol hydrochloride, reference compound] | Papp at 90 min ([1]; read-out: Permeability (individual replicates 1, 2)): 23 ×10⁻⁶ cm/s; Papp at 90 min ([1]; read-out: Permeability Mean): 21.8 ×10⁻⁶ cm/s; Permeability (individual replicates 1, 2) (Caco-2 cells): 20.6 10^−6 cm/s
5 | – | – | C=C[C@H]1C[N@@]2CC[C@H]1C[C@@H]2[C@@H](O)c1ccnc2ccc(OC)cc12 [quinidine, reference compound] | inhibition at 1 µM (CYP 2D6): 88.4%
